Our source for the IC50 values is US6656932B2, “Benzo thiadiazine matrix metalloproteinase inhibitors” (Warner-Lambert Company, priority 2001, dated 2003).

Molecules are shown by their SMILES. Counter-ions that a name gives are not always drawn.

One assay deals with MMP-3CD (catalytic domain of stromelysin-1) (Homo sapiens, UniProt P08254). Put plainly: Thiopeptolide hydrolysis assay, MMP-3CD. To be noted: Table 2; thiopeptolide substrate, MES buffer pH 6.0; read-out: IC50 (μM) Versus Certain MMPs: MMP03 (CD). Format: biochemical. As to the method: (§1) The invention compounds of Formula I have been evaluated in standard assays for their ability to inhibit the catalytic activity of various MMP enzymes.
Chain of MMP-3CD (catalytic domain of stromelysin-1) (P08254 100-272 limits assumed): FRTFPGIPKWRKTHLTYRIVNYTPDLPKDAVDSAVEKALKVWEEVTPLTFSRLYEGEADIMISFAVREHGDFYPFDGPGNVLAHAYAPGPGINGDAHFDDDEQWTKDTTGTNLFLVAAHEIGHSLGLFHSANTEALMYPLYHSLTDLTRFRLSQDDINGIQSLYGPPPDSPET
(§2) Thiopeptolide substrates show virtually no decomposition or hydrolysis at or below neutral pH in the absence of a matrix metalloproteinase enzyme.
(§3) Several representative compounds have been evaluated for their ability to inhibit various matrix metalloproteinase enzymes.
It should be appreciated that the assay buffer used with MMP-3CD was 50 mM of N-morpholinoethane sulfonate (“MES”) at pH 6.0 rather than the HEPES buffer at pH 7.0 described above.
For orientation: IC50 means the concentration needed to halve the response being measured. `COc1ccc(CNC(=O)c2ccc3c(c2)S(=O)(=O)N(Cc2ccc([N+](=O)[O-])cc2)C(=O)N3C)cc1` [Example 17, 4-Methyl-2-(4-nitro-benzyl)-1,1,3-trioxo-1,2,3,4-tetrahydro-1l^6-benzo[1,2,4]thiadiazine-7-carboxylic acid 4-methoxy-benzylamide]: the IC50 is 16 µM.

The next assay concerns the target MMP-13CD (catalytic domain of collagenase 3) (Homo sapiens, UniProt P45452). Put plainly: Thiopeptolide hydrolysis assay, MMP-13CD. In kind it is biochemical. To be noted: Table 1; thiopeptolide substrate, HEPES pH 7.0; read-out: MMP13 (CD) IC50.
Excerpt: as §1, §2, §3
With `CN1C(=O)N(Cc2ccccc2)S(=O)(=O)c2cc(C(=O)NCc3ccncc3)ccc21` [Example 3, 2-Benzyl-4-methyl-1,1,3-trioxo-1,2,3,4-tetrahydro-1l^6-benzo[1,2,4]thiadiazine-7-carboxylic acid (pyridin-4-ylmethyl)-amide], the IC50 turned out to be 0.51 µM.

As for `CN1C(=O)N(Cc2ccccc2)S(=O)(=O)c2cc(C(=O)NCc3ccccc3)ccc21` [Example 2, 2-Benzyl-4-methyl-1,1,3-trioxo-1,2,3,4-tetrahydro-1l^6-benzo[1,2,4]thiadiazine-7-carboxylic Acid Benzylamide], the IC50 was determined as 0.88 µM.

The assay is the same for the next values; noted with them: Table 2; thiopeptolide substrate, HEPES pH 7.0; read-out: IC50 (μM) Versus Certain MMPs: MMP13 (CD).
On to `CCC#CCN1C(=O)N(C)c2ccc(C(=O)NCc3ccc(OC)cc3)cc2S1(=O)=O` [Example 35, 4-methyl-1,1,3-trioxo-2-pent-2-ynyl-1,2,3,4-tetrahydro-1l^6-benzo[1,2,4]thiadiazine-7-carboxylic Acid 4-methoxy-benzylamide], for which the IC50 turned out to be 1.4 µM. On the same count and under the same terms, to `COc1ccc(CNC(=O)c2ccc3c(c2)S(=O)(=O)N(CCCCCC#N)C(=O)N3C)cc1` [Example 37, 2-(5-Cyano-pentyl)-4-methyl-1,1,3-trioxo-1,2,3,4.tetrahydro-1l^6-benzo[1,2,4]thiadiazine-7-carboxylic Acid 4-methoxy-benzylamide] belongs 3.2 µM; to `COc1ccc(CNC(=O)c2ccc3c(c2)S(=O)(=O)N(CCS(=O)(=O)c2ccc(C)cc2)C(=O)N3C)cc1` [Example 42, 4-Methyl-1,1,3-trioxo-2-[2-(toluene-4-sulfonyl)-ethyl]-1,2,3,4-tetrahydro-1l^6-benzo[1,2,4]thiadiazine-7-carboxylic Acid 4-methoxy-benzylamide], 100 µM; to `COc1ccc(CNC(=O)c2ccc3c(c2)S(=O)(=O)N(Cc2ccc4nonc4c2)C(=O)N3C)cc1` [Example 45, 2-Benzo[1,2,5]oxadiazol-5-ylmethyl-4-methyl-1,1,3-trioxo-1,2,3,4-tetrahydro-1l^6-benzo[1,2,4]thiadiazine-7-carboxylic Acid 4-methoxy-benzylamide], 0.7 µM. In the case of `COc1ccc(CNC(=O)c2ccc3c(c2)S(=O)(=O)N(C(C)c2ccccc2)C(=O)N3C)cc1` (centres unmarked) [Example 36, 4-Methyl-1,1,3-trioxo-2-(1-phenyl-ethyl)-1,2,3,4-tetrahydro-1l^6-benzo[1,2,4]thiadiazine-7-carboxylic Acid 4-methoxy-benzylamide], the IC50 was found to be 6.3 µM. Still for that read-out and setting: for `CC/C=C/CN1C(=O)N(C)c2ccc(C(=O)NCc3ccc(OC)cc3)cc2S1(=O)=O` [Example 39, 4-Methyl-1,1,3-trioxo-2-(E)-pent-2-enyl-1,2,3,4-tetrahydro-1l^6-benzo[1,2,4]thiadiazine-7-carboxylic Acid 4-methoxy-benzylamide] the value was 1.5 µM; for `CN1C(=O)N(Cc2ccccc2)S(=O)(=O)c2cc(C(=O)NCc3ccc(CCS(N)(=O)=O)cc3)ccc21` [Example 8, 2-Benzyl-4-methyl-1,1,3-trioxo-1,2,3,4-tetrahydro-1l^6-benzo[1,2,4]thiadiazine-7-carboxylic acid 4-(2-sulfamoyl-ethyl)-benzylamide], 63 µM. On the same count and under the same terms, for `COc1ccc(CNC(=O)c2ccc3c(c2)S(=O)(=O)N(Cc2ccc(N)cc2)C(=O)N3C)cc1` [Example 33, 2-(4-Amino-benzyl)-4-methyl-1,1,3-trioxo-1,2,3,4-tetrahydro-1l^6-benzo[1,2,4]thiadiazine-7-carboxylic acid 4-methoxy-benzylamide] the value was 8.8 µM; for `COC(=O)Nc1cc(CN2C(=O)N(C)c3ccc(C(=O)NCc4ccc(OC)cc4)cc3S2(=O)=O)on1` [Example 46, {5-[7-(4-Methoxy-benzylcarbamoyl)-4-methyl-1,1,3-trioxo-3,4-dihydro-1H-1l^6-benzo[1,2,4]thiadiazin-2-ylmethyl]-isoxazol-3-yl}-carbamic Acid Methyl Ester], 1.7 µM; for `COc1ccc(CNC(=O)c2ccc3c(c2)S(=O)(=O)N(Cc2ccc(-c4ccccc4)cc2)C(=O)N3C)cc1` [Example 23, 2-Biphenyl-4-ylmethyl-4-methyl-1,1,3-trioxo-1,2,3,4-tetrahydro-1l^6-benzo[1,2,4]thiadiazine-7-carboxylic acid 4-methoxy-benzylamide], over 30 µM. On the same count and under the same terms, to `COc1ccc(CNC(=O)c2ccc3c(c2)S(=O)(=O)N(Cc2ccc(C(=O)OCCN(C)C)cc2)C(=O)N3C)cc1` [Example 26, 4-[7-(4-Methoxy-benzylcarbamoyl)-4-methyl-1,1,3-trioxo-3,4-dihydro-1H-1l^6-benzo[1,2,4]thiadiazin-2-ylmethyl]-benzoic acid 2-dimethylamino-ethyl Ester Hydrochloride] belongs 2.2 µM. For the compound `COc1ccc(CNC(=O)c2ccc3c(c2)S(=O)(=O)N(Cc2cscn2)C(=O)N3C)cc1` [Example 47, 4-Methyl-1,1,3-trioxo-2-thiazol-4-ylmethyl-1,2,3,4-tetrahydro-1l^6-benzo[1,2,4]thiadiazine-7-carboxylic Acid 4-methoxy-benzylamide], the half-inhibitory concentration (IC50) was 13 µM. With `CN1C(=O)N(Cc2ccc(C(=O)OC(C)(C)C)cc2)S(=O)(=O)c2cc(C(=O)NCc3ccccc3)ccc21` [Example 10, 4-(7-Benzylcarbamoyl-4-methyl-1,1,3-trioxo-3,4-dihydro-1H-1l^6-benzo[1,2,4]thiadiazin-2-ylmethyl)-benzoic Acid Tert-Butyl Ester], the half-maximal inhibitory concentration (IC50) was over 30 µM. Same read-out and setting: for `CN1C(=O)N(Cc2ccccc2)S(=O)(=O)c2cc(C(=O)NCc3ccc(CCS(=O)(=O)NC(C)(C)C)cc3)ccc21` [Example 6, 2-Benzyl-4-methyl-1,1,3-trioxo-1,2,3,4-tetrahydro-1l^6-benzo[1,2,4]thiadiazine-7-carboxylic acid 4-(2-tert-butylsulfamoyl-ethyl)-benzylamide] the value was over 30 µM; for `C=C(C)CN1C(=O)N(C)c2ccc(C(=O)NCc3ccc(OC)cc3)cc2S1(=O)=O` [Example 40, 4-Methyl-2-(2-methyl-allyl)-1,1,3-trioxo-1,2,3,4-tetrahydro-1l^6-benzo[1,2,4]thiadiazine-7-carboxylic Acid 4-methoxy-benzylamide], 1.7 µM; for `COc1ccc(CNC(=O)c2ccc3c(c2)S(=O)(=O)N(Cc2ccc([N+](=O)[O-])cc2)C(=O)N3C)cc1` [Example 17, 4-Methyl-2-(4-nitro-benzyl)-1,1,3-trioxo-1,2,3,4-tetrahydro-1l^6-benzo[1,2,4]thiadiazine-7-carboxylic acid 4-methoxy-benzylamide], 0.615 µM. On the same count and under the same terms, to `C/C=C/CN1C(=O)N(C)c2ccc(C(=O)NCc3ccc(OC)cc3)cc2S1(=O)=O` [Example 38, 2-(E)-But-2-enyl-4-methyl-1,1,3-trioxo-1,2,3,4-tetrahydro-1l^6-benzo[1,2,4]thiadiazine-7-carboxylic Acid 4-methoxy-benzylamide] belongs 2.2 µM. The same measure, in the same setting: for `COc1ccc(CNC(=O)c2ccc3c(c2)S(=O)(=O)N(CCNC(=O)c2ccccc2)C(=O)N3C)cc1` [Example 44, 4-Methyl-1,1,3-trioxo-2-{2-[(1-phenyl-methanoyl)-amino]-ethyl}-1,2,3,4-tetrahydro-1l^6-benzo[1,2,4]thiadiazine-7-carboxylic Acid 4-methoxy-benzylamide] the value was 86 µM; for `COc1ccc(CNC(=O)c2ccc3c(c2)S(=O)(=O)N(Cc2ccc(C(=O)OC(C)(C)C)cc2)C(=O)N3C)cc1` [Example 12, 4-[7-(4-Methoxy-benzylcarbamoyl)-4-methyl-1,1,3-trioxo-3,4-dihydro-1H-1l^6-benzo[1,2,4]thiadiazin-2-ylmethyl]-Benzoic Acid Tert-Butyl Ester], over 30 µM.

As to `CN1C(=O)N(Cc2ccccc2)S(=O)(=O)c2cc(C(=O)NCc3ccc4[nH]ccc4c3)ccc21` [Example 4, 2-Benzyl-4-methyl-1,1,3-trioxo-1,2,3,4-tetrahydro-1l^6-benzo[1,2,4]thiadiazine-7-carboxylic acid (1H-indol-5-ylmethyl)-amide], the IC50 is over 30 µM. Same read-out and setting: for `COc1ccc(CNC(=O)c2ccc3c(c2)S(=O)(=O)N(Cc2ccc(S(C)(=O)=O)cc2)C(=O)N3C)cc1` [Example 15, 2-(4-Methanesulfonyl-benzyl)-4-methyl-1,1,3-trioxo-1,2,3,4-tetrahydro-1l^6-benzo[1,2,4]thiadiazine-7-carboxylic acid 4-methoxy-benzylamide] the value was 11 µM. On the same count and under the same terms, to `CN1C(=O)N(Cc2ccccc2)S(=O)(=O)c2cc(C(=O)NCc3cc4ccccc4[nH]3)ccc21` [Example 7, 2-Benzyl-4-methyl-1,1,3-trioxo-1,2,3,4-tetrahydro-1l^6-benzo[1,2,4]thiadiazine-7-carboxylic acid (1H-indol-2-ylmethyl)-amide] belongs over 30 µM; to `COc1ccc(CNC(=O)c2ccc3c(c2)S(=O)(=O)N(CC=C(C)C)C(=O)N3C)cc1` [Example 41, 4-Methyl-2-(3-methyl-but-2-enyl)-1,1,3-trioxo-1,2,3,4-tetrahydro-1l^6-benzo[1,2,4]thiadiazine-7-carboxylic Acid 4-methoxy-benzylamide], 1.9 µM.
